Reference: patent US20050282743A1, “Molecular interactions in cells” (Arbor Vita Corporation, priority 2001, published 2005)
Where two headings read alike, the source gives them in different places. Ends that are not written are not given here. Peptide text beside a SMILES is read from it. * marks the point of attachment. Biotin = O=C1N[C@H]2[C@H](CS[C@H]2CCCCC(=O)*)N1

Assays:
Format in all cases: binding
[1] = target: T1, PDZ-domain polypeptide (GST/PDZ fusion protein) (Homo sapiens, UniProt Q86UL8); test: Apparent affinity (Kd) by titration of PL peptide in the G assay; conditions: PDZ atrophin-1 interacting Protein
T1 construct: made in house; host or cells: E. coli (DH5alpha, BL21 or JM109)
In short: (§1)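 A fixed concentration of GST/PDZ fusion protein, 5 ug/ml by default, was mixed in solution with increasing labeled PL peptide (e.g. 0.1 uM-1 mM). Reaction times ranged from 10 minutes to 2 days at 4-37° C. Complexes were separated from free peptide and detected via the label as in the G assay, apparent affinity coming from the saturating concentration.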

[2] = target: T2, PDZ protein (GST-PDZ fusion) (Homo sapiens, UniProt O15021); test: G' assay (10 uM PL peptide), results of TABLE 7 and TABLE 12; conditions: PDZ KIAA0303, PDZ Domain 1
T2 construct: made in house; host or cells: E. coli (DH5alpha, BL21 or JM109)
In short: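 Biotin-PL peptide (N-term label), 10 uM vs GST-PDZ; protein 5 ug/ml by default. A450 nm binned: 1 = 0-1, 2 = 1-2, 3 = 2-3, 4 = 3-4, 5 = >4 on >2 repeats, 0 = no binding.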

[3] = target: T3, PDZ-domain polypeptide (GST/PDZ fusion protein) (Homo sapiens, UniProt Q92796); test: Apparent affinity (Kd) by titration of PL peptide in the G assay; conditions: PDZ NeDLG
T3 construct: made in house; host or cells: E. coli (DH5alpha, BL21 or JM109)
T3 sequence (Q92796 1-817): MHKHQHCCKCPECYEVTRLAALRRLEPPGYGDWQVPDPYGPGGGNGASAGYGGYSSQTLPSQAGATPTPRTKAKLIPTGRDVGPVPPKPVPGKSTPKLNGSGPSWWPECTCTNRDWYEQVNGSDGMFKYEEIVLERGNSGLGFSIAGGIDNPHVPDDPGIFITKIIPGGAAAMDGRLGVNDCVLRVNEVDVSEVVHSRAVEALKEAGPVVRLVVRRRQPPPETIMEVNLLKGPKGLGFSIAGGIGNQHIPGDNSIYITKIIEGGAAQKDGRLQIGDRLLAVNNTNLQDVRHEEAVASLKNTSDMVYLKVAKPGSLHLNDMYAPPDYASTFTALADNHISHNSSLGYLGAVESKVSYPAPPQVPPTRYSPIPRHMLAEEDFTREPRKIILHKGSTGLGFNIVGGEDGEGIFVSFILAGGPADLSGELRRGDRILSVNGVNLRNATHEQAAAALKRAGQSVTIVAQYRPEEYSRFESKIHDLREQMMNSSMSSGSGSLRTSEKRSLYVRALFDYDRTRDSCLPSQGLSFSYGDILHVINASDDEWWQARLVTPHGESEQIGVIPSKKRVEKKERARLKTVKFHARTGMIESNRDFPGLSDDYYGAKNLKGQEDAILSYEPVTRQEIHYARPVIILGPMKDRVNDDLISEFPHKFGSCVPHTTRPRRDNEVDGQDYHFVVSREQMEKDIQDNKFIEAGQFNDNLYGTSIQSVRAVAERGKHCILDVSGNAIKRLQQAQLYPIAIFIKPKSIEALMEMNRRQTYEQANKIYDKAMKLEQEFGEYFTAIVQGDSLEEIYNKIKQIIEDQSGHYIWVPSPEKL
In short: as §1

[4] = target: T4, PDZ-domain polypeptide (GST/PDZ fusion protein) (Homo sapiens, UniProt Q6P0Q8); test: as above
T4 construct: made in house; host or cells: E. coli (DH5alpha, BL21 or JM109)
In short: as §1

[5] = PDZ Domain 2, read-out: Peptide Optimal Conc (Kd by titration of the PL peptide)
[6] = PDZ KIAA0807(S), PDZ Domain 1, read-out: Peptide Optimal Conc (Kd by titration of the PL peptide)

T4 sequence (Q6P0Q8 whole entry, the tested form may be a part): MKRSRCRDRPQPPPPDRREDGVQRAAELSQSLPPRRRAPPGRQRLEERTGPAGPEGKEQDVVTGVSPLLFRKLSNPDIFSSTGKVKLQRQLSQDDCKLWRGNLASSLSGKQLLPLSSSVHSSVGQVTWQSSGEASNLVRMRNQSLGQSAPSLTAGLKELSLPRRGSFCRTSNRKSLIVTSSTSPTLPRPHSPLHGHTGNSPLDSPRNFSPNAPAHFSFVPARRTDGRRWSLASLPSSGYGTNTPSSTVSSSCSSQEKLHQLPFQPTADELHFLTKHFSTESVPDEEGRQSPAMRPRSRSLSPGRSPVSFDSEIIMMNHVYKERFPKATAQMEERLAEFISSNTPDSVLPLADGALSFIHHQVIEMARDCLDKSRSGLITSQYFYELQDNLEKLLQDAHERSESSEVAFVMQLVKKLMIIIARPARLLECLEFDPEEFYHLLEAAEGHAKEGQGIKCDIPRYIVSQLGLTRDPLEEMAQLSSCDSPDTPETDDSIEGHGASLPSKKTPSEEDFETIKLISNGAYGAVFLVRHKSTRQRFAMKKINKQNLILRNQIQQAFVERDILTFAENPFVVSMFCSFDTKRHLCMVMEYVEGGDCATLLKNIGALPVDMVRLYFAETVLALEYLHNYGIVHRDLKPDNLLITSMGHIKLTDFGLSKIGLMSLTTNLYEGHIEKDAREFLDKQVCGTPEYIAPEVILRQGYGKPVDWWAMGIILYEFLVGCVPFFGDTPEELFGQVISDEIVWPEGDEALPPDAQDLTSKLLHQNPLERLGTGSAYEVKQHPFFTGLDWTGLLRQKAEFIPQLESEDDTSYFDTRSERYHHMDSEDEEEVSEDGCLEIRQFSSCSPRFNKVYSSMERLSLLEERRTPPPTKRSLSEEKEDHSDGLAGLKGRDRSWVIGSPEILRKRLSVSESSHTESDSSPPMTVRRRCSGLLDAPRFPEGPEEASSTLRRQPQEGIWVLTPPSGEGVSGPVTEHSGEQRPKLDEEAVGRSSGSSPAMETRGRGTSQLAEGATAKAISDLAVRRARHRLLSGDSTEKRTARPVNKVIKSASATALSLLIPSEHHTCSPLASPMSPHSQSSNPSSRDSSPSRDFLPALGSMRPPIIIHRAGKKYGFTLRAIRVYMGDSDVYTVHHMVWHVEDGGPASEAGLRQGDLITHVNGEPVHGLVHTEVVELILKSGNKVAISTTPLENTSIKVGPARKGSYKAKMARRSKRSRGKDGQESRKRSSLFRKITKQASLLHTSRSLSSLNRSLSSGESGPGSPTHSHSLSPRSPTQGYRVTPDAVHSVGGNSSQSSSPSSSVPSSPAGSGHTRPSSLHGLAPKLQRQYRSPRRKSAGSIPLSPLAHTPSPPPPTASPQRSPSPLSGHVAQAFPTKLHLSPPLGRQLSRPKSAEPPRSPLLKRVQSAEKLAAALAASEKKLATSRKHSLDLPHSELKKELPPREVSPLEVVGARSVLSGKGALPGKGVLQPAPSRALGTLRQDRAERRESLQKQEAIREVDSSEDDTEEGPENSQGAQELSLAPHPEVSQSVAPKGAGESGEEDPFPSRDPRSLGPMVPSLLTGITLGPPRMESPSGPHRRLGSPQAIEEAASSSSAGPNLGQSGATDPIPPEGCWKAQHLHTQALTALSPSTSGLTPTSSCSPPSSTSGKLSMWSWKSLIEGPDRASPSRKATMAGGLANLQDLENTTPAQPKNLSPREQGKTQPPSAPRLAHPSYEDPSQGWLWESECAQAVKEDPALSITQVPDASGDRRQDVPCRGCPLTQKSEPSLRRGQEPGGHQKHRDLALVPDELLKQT
T1 sequence (Q86UL8 whole entry, the tested form may be a part): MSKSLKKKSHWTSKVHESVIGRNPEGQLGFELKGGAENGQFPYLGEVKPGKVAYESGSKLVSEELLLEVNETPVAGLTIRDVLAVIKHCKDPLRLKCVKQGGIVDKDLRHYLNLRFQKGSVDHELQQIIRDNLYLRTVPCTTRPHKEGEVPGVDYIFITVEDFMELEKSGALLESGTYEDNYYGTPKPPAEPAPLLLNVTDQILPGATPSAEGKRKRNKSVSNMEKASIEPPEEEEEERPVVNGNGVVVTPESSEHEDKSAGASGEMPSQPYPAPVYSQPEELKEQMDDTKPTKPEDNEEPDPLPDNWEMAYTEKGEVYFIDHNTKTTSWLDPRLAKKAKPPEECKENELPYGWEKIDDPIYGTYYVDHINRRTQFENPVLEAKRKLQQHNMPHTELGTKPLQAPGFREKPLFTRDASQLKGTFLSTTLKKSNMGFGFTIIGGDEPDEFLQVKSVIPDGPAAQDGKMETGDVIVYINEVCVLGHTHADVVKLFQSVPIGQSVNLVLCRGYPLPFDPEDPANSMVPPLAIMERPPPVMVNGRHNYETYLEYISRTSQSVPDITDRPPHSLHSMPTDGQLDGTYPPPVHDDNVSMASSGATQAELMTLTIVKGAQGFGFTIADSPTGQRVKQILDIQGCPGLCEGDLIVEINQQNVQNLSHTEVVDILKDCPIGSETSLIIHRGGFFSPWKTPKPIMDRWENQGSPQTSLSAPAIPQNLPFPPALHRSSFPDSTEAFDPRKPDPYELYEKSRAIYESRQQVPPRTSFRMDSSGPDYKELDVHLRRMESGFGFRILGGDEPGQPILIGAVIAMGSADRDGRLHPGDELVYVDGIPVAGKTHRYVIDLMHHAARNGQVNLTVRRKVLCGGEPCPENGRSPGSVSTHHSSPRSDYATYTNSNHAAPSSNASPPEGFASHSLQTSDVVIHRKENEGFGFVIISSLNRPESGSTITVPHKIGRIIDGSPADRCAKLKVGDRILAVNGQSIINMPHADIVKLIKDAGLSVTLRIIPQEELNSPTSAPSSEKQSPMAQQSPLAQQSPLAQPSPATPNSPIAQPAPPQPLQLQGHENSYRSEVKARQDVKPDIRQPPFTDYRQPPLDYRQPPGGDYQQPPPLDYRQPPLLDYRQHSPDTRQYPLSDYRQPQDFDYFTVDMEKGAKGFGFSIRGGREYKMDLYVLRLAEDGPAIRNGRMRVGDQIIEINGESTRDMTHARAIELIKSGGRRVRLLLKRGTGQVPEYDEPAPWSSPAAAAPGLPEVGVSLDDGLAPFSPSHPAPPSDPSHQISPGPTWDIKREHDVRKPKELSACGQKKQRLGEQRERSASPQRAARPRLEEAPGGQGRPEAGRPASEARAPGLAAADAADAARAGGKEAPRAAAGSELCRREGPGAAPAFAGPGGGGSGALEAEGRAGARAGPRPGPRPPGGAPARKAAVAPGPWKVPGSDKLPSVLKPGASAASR

`CC(C)C[C@H](NC(=O)CNC(=O)[C@@H](NC(=O)[C@H](CO)NC(=O)[C@H](CC(N)=O)NC(=O)[C@H](Cc1ccccc1)NC(=O)CNC(=O)[C@H](C)NC(=O)[C@H](C)NC(=O)[C@H](Cc1ccccc1)NC(=O)[C@@H](NC(=O)CCCC[C@@H]1SC[C@@H]2NC(=O)N[C@@H]21)[C@@H](C)O)[C@@H](C)O)C(=O)N1CCC[C@H]1C(=O)N[C@@H](Cc1c[nH]cn1)C(=O)N[C@@H](CO)C(=O)N[C@H](C(=O)N[C@H](C(=O)N[C@@H](CCCNC(=N)N)C(=O)N[C@H](C(=O)O)C(C)C)[C@@H](C)O)[C@@H](C)O` [Neuroligin] (Biotin-TFAAGFNSTGLPHSTTRV-OH; C-terminus assumed) gave a Kd ([1]; PDZ Domain 1, read-out: Peptide Optimal Conc (Kd by titration of the PL peptide)) of 250 nM.

“ELLQFCRTPNPALKNGQYWV (Biotin-ELLQFCRTPNPALKNGQYWV)” was tested, and the Classification [2] was 1 (A450 nm 0-1).

Compound `CC(C)C[C@H](NC(=O)[C@H](C)NC(=O)[C@H](CO)NC(=O)CNC(=O)[C@@H](NC(=O)CCCC[C@@H]1SC[C@@H]2NC(=O)N[C@@H]21)[C@@H](C)O)C(=O)N[C@@H](CCC(N)=O)C(=O)N[C@@H](C)C(=O)N[C@@H](Cc1c[nH]c2ccccc12)C(=O)N[C@@H](CCCNC(=N)N)C(=O)N[C@@H](Cc1c[nH]cn1)C(=O)N[C@H](C(=O)N[C@@H](CO)C(=O)N[C@@H](CCCNC(=N)N)C(=O)N[C@@H](CCC(N)=O)C(=O)N[C@@H](C)C(=O)N[C@H](C(=O)N[C@@H](CCC(=O)O)C(=O)N[C@@H](CO)C(=O)N[C@H](C(=O)N[C@H](C(=O)O)C(C)C)[C@@H](C)O)[C@@H](C)O)[C@@H](C)O` [HPV E6 #66 (modified)] (Biotin-TGSALQAWRHTSRQATESTV-OH; C-terminus assumed) has a Kd ([3]; PDZ Domain 1, 2, read-out: Peptide Optimal Conc (Kd by titration of the PL peptide)) of 1000 nM and a Kd [3, 5] of 3500 nM.

For `CC[C@H](C)[C@H](NC(=O)[C@H](CO)NC(=O)[C@@H](NC(=O)[C@H](Cc1ccccc1)NC(=O)[C@H](CO)NC(=O)CCCC[C@@H]1SC[C@@H]2NC(=O)N[C@@H]21)[C@@H](C)O)C(=O)N[C@@H](CC(C)C)C(=O)N[C@H](C(=O)N[C@@H](CS)C(=O)N[C@@H](Cc1c[nH]cn1)C(=O)N[C@@H](CCC(N)=O)C(=O)N[C@@H](CCCNC(=N)N)C(=O)N[C@@H](CCCNC(=N)N)C(=O)N[C@H](C(=O)N[C@@H](CCC(N)=O)C(=O)N[C@@H](CCCNC(=N)N)C(=O)N[C@@H](CCCCN)C(=O)N[C@@H](CCC(=O)O)C(=O)N[C@H](C(=O)N[C@H](C(=O)N[C@@H](C)C(=O)O)C(C)C)[C@@H](C)O)[C@@H](C)O)[C@@H](C)O` [GluR5-2 (rat)], the Kd ([3]; PDZ Domain 1, 2, titration of the PL peptide, read-out: Peptide Optimal Conc (Kd, dissociation constant)) was 100 nM and the Classification [2] was 1 (A450 nm 0-1).

`CC(C)C[C@H](NC(=O)[C@H](Cc1c[nH]c2ccccc12)NC(=O)[C@H](Cc1c[nH]cn1)NC(=O)[C@H](CCCNC(=N)N)NC(=O)[C@H](CC(C)C)NC(=O)[C@@H](NC(=O)[C@H](Cc1ccccc1)NC(=O)[C@H](CCC(N)=O)NC(=O)[C@H](CCCNC(=N)N)NC(=O)[C@@H](NC(=O)[C@H](CCC(=O)O)NC(=O)CNC(=O)[C@H](CCCNC(=N)N)NC(=O)[C@H](CC(=O)O)NC(=O)[C@@H](NC(=O)[C@H](CC(C)C)NC(=O)[C@H](CCC(=O)O)NC(=O)[C@H](CCCNC(=N)N)NC(=O)CCCC[C@@H]1SC[C@@H]2NC(=O)N[C@@H]21)C(C)C)C(C)C)[C@@H](C)O)C(=O)N[C@@H](CCCCN)C(=O)N[C@H](C(=O)O)C(C)C` [Dopamine transporter (Na+-dependent)] (Biotin-RELVDRGEVRQFTLRHWLKV-OH; C-terminus assumed) was tested, and the Kd [4, 6] was 400 nM and the Kd ([4]; PDZ KIAA807, read-out: Peptide Optimal Conc (Kd by titration of the PL peptide)) was 400 nM.

For `CC[C@H](C)[C@H](NC(=O)[C@H](CCC(N)=O)NC(=O)[C@@H](NC(=O)[C@H](Cc1c[nH]cn1)NC(=O)[C@H](CCC(N)=O)NC(=O)[C@H](CC(=O)O)NC(=O)[C@H](CCC(=O)O)NC(=O)[C@H](CC(=O)O)NC(=O)[C@H](Cc1ccccc1)NC(=O)[C@@H]1CCCN1C(=O)[C@H](CCC(=O)O)NC(=O)[C@H](CC(N)=O)NC(=O)[C@H](CCC(=O)O)NC(=O)[C@@H]1CCCN1C(=O)[C@H](CC(=O)O)NC(=O)[C@H](CO)NC(=O)[C@H](CC(=O)O)NC(=O)CCCC[C@@H]1SC[C@@H]2NC(=O)N[C@@H]21)[C@@H](C)O)C(=O)N[C@H](C(=O)N[C@@H](CCCCN)C(=O)N[C@H](C(=O)O)C(C)C)[C@@H](C)O` [PTEN], the Kd [4, 6] was 300 nM.

`CSCC[C@H](NC(=O)[C@H](C)NC(=O)[C@H](CCCNC(=N)N)NC(=O)CNC(=O)[C@@H](NC(=O)[C@H](Cc1c[nH]c2ccccc12)NC(=O)[C@H](CCCNC(=N)N)NC(=O)CNC(=O)CCCC[C@@H]1SC[C@@H]2NC(=O)N[C@@H]21)[C@@H](C)O)C(=O)N[C@@H](CO)C(=O)N[C@@H](C)C(=O)N[C@@H](Cc1c[nH]c2ccccc12)C(=O)N[C@@H](CCCCN)C(=O)N1CCC[C@H]1C(=O)N[C@H](C(=O)N[C@@H](CCCNC(=N)N)C(=O)N[C@@H](CCCNC(=N)N)C(=O)N[C@@H](CCC(=O)O)C(=O)N[C@H](C(=O)N[C@@H](CCC(=O)O)C(=O)N[C@H](C(=O)O)C(C)C)[C@@H](C)O)[C@@H](C)O` [HPV E6 #35 (modified)] (Biotin-GRWTGRAMSAWKPTRRETEV-OH; C-terminus assumed) gave a Kd ([4]; PDZ KIAA0807(S), PDZ Domain 1, Protein Optimal Conc 0.5, read-out: Peptide Optimal Conc (Kd by titration of the PL peptide)) of 100 nM and a Kd [1, 5] of 800 nM.

`CC[C@H](C)[C@H](NC(=O)[C@H](CC(=O)O)NC(=O)[C@H](CCC(=O)O)NC(=O)[C@H](CCCNC(=N)N)NC(=O)[C@@H](NC(=O)CCCC[C@@H]1SC[C@@H]2NC(=O)N[C@@H]21)[C@@H](C)O)C(=O)N[C@@H](Cc1ccc(O)cc1)C(=O)N[C@H](C(=O)N[C@@H](CC(N)=O)C(=O)N[C@@H](Cc1ccc(O)cc1)C(=O)N1CCC[C@H]1C(=O)N[C@H](C(=O)N[C@@H](Cc1ccccc1)C(=O)N[C@@H](CO)C(=O)N[C@@H](CCCNC(=N)N)C(=O)N[C@@H](CCCNC(=N)N)C(=O)N1CCC[C@H]1C(=O)N[C@@H](CCCCN)C(=O)N[C@H](C(=O)N[C@@H](CCCNC(=N)N)C(=O)N[C@H](C(=O)O)C(C)C)[C@@H](C)O)[C@@H](C)O)C(C)C` [DNAM-1] (Biotin-TREDIYVNYPTFSRRPKTRV-OH; C-terminus assumed) showed a Kd ([4]; Peptide Optimal Conc (Kd by titration of the PL peptide), PDZ KIAA807) of 2000 nM, a Kd ([4]; Peptide Optimal Conc (Kd by titration of the PL peptide), PDZ KIAA0807(S), PDZ Domain 1) of 2000 nM and a Kd ([1]; Peptide Optimal Conc (Kd by titration of the PL peptide), PDZ Domain 1) of 3000 nM.

For `CC[C@H](C)[C@H](NC(=O)[C@H](CCCCN)NC(=O)[C@@H](NC(=O)[C@H](CO)NC(=O)[C@@H]1CCCN1C(=O)[C@H](Cc1ccccc1)NC(=O)[C@@H](NC(=O)[C@@H](NC(=O)[C@H](CCCNC(=N)N)NC(=O)[C@H](CCC(=O)O)NC(=O)[C@H](CC(C)C)NC(=O)[C@H](CC(C)C)NC(=O)[C@H](CC(C)C)NC(=O)[C@@H](NC(=O)CNC(=O)[C@@H](NC(=O)CCCC[C@@H]1SC[C@@H]2NC(=O)N[C@@H]21)C(C)C)[C@@H](C)O)C(C)C)[C@@H](C)CC)C(C)C)C(=O)N[C@@H](C)C(=O)N[C@H](C(=O)N[C@@H](CC(C)C)C(=O)N[C@H](C(=O)O)C(C)C)[C@@H](C)O` [Adenovirus E4 Type9], the Kd ([4]; PDZ KIAA0807(S), PDZ Domain 1, Protein Optimal Conc 5, read-out: Peptide Optimal Conc (Kd by titration of the PL peptide)) was 200 nM, the Kd ([1]; PDZ Domain 1, Protein Optimal Conc 0.5, read-out: Peptide Optimal Conc (Kd by titration of the PL peptide)) was 20 nM and the Kd ([1]; PDZ Domain 3, Protein Optimal Conc 5, read-out: Peptide Optimal Conc (Kd by titration of the PL peptide)) was 100 nM. The Kd ([3]; PDZ Domain 2, Protein Optimal Conc 5, read-out: Peptide Optimal Conc (Kd by titration of the PL peptide)) was 100 nM.
